In US20240059703A1 (AMGEN INC., priority 2021, published 2024):

Key:
[1] = tested on: A549 (human lung carcinoma) cells; experiment: Cell Viability Assay (CellTiter-Glo), A549; type: cell-based; settings: Homo sapiens, A549, 72 h
Outline: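 After a 72 h exposure to serial compound dilutions at 37° C, luminescent ATP content was measured with CellTiter-Glo. The cells were A549 or MIA PaCa-2, seeded at 1.67E+04 cells/mL in RPMI 1640 with 10% serum. Signals were normalized to DMSO controls and IC50 fitted with a 4-parameter logistic model.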

[2] = tested on: MIA PaCa-2 (human pancreatic carcinoma) cells; experiment: Cell Viability Assay (CellTiter-Glo), MIA PaCa-2; type: cell-based; settings: Homo sapiens, MIA PaCa-2, 72 h
Protocol: Serially-diluted compound or DMSO was added to the cells, and plates were incubated at 37° C., 5% CO2 for 72 h. Cell viability was measured using a CellTiter-Glo® Luminescent Cell Viability Assay kit (Promega) according to the manufacturer's protocol. The luminescence signal of treated samples was normalized to DMSO control, and data were analyzed using a 4-parameter logistic model to calculate IC50 values.

[3] = target: KRAS G12C (Homo sapiens (Human), UniProt P01116, C118A/G12C); experiment: 2 h coupled exchange assay; type: biochemical; settings: Avg 2 h Coupled exchange IC50, 2 h compound pre-incubation, SOS-mediated nucleotide exchange
Protocol: The term “2 h coupled exchange assay” or “20 h coupled exchange assay” as used herein refers to the assay described in the Section entitled “BIOLOGICAL EVALUATION.”

Chain of KRAS G12C (P01116 other isoform, or with tags, fused parts or gaps G12C/C118A): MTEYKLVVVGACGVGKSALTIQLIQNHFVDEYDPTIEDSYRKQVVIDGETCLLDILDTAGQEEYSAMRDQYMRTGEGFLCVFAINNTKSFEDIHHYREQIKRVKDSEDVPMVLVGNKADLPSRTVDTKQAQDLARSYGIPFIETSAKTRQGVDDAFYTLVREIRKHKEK

IC50 [1]	IC50 [2]	IC50 [3]	Structure (SMILES)
13.4 µM	0.037 µM	0.028 µM	C=CC(=O)N1CC2(CCN(c3cc4c(c(-c5c(C)ccc6cnn(C)c56)c3C#N)OCCC4)C2)C1 [Example 2-101, 8-(1,6-dimethyl-1H-indazol-7-yl)-6-(2-(2-propenoyl)-2,6-diazaspiro[3.4]octan-6-yl)-3,4-dihydro-2H-chromene-7-carbonitrile]
> 5 µM	0.118 µM	0.294 µM	C=CC(=O)N1CC2(CCN(c3cc4c(c(-c5c(C(F)(F)F)ccc6[nH]ncc56)c3Cl)OCCC4)C2)C1 [Example 2-103, 1-(6-(7-chloro-8-(5-(trifluoromethyl)-1H-indazol-4-yl)-3,4-dihydro-2H-chromen-6-yl)-2,6-diazaspiro[3.4]octan-2-yl)-2-propen-1-one]
> 5 µM	0.003 µM	0.018 µM	C=CC(=O)N1CC2(CCN(c3cc4c(c(-c5c(C)c(Cl)cc6cnn(C)c56)c3C#N)OCCC4)C2)C1 [Example 2-104, 8-(5-chloro-1,6-dimethyl-1H-indazol-7-yl)-6-(2-(2-propenoyl)-2,6-diazaspiro[3.4]octan-6-yl)-3,4-dihydro-2H-chromene-7-carbonitrile]
3.42 µM	0.425 µM	0.091 µM	C=CC(=O)N1CC2(C1)CN(c1nc3c(c(-c4c(C)ccc5[nH]ncc45)c1C#N)CCC(C)(C)C3)CC2(F)F [Example 2-105, 2-(8,8-difluoro-2-(2-propenoyl)-2,6-diazaspiro[3.4]octan-6-yl)-7,7-dimethyl-4-(5-methyl-1H-indazol-4-yl)-5,6,7,8-tetrahydro-3-quinolinecarbonitrile]
> 5 µM	0.007 µM	0.017 µM	C=CC(=O)N1CC2(CCN(c3cc4c(c(-c5c(C)c(Cl)cc6cnn(C)c56)c3C#N)OCCC4)[C@H]2C)C1 [Example 2-107, 8-(5-chloro-1,6-dimethyl-1H-indazol-7-yl)-6-((5S)-5-methyl-2-(2-propenoyl)-2,6-diazaspiro[3.4]octan-6-yl)-3,4-dihydro-2H-chromene-7-carbonitrile]
> 5 µM	0.02 µM	0.053 µM	C=CC(=O)N1CC2(CCN(c3cc4c(c(-c5c(C)c(Cl)cc6cnn(C)c56)c3Cl)OCCC4)C2)C1 [Example 2-110, 1-(6-(7-chloro-8-(5-chloro-1,6-dimethyl-1H-indazol-7-yl)-3,4-dihydro-2H-chromen-6-yl)-2,6-diazaspiro[3.4]octan-2-yl)-2-propen-1-one]
> 25 µM	12.9 µM	181 µM	C=CC(=O)N1CC2(CCN(c3nc(-c4c(C)ccc5[nH]ncc45)c4c(n3)N(C)CC4)C2)C1 [Example 5, 1-(6-(7-methyl-4-(5-methyl-1H-indazol-4-yl)-6,7-dihydro-5H-pyrrolo[2,3-d]pyrimidin-2-yl)-2,6-diazaspiro[3.4]octan-2-yl)prop-2-en-1-one]
> 5 µM	3.42 µM	0.879 µM	C=CC(=O)N1CC2(CCN(c3cc4c(ncn4C)c(-c4c(C)ccc5[nH]ncc45)c3C#N)C2)C1 [Example 7, 1-methyl-4-(5-methyl-1H-indazol-4-yl)-6-(2-(2-propenoyl)-2,6-diazaspiro[3.4]octan-6-yl)-1H-benzimidazole-5-carbonitrile]
> 5 µM	0.088 µM	0.094 µM	C=CC(=O)N1CC2(CCN(c3nc4c(c(-c5cc(O)cc(C)c5Cl)c3C)COC(C)(C)C4)C2)C1 [Example 12-1, 1-(6-(4-(2-chloro-5-hydroxy-3-methylphenyl)-3,7,7-trimethyl-7,8-dihydro-5H-pyrano[4,3-b]pyridin-2-yl)-2,6-diazaspiro[3.4]octan-2-yl)prop-2-en-1-one]
> 5 µM	0.038 µM	0.041 µM	C=CC(=O)N1CC2(CCN(c3nc4c(c(-c5cc(O)cc(Cl)c5C)c3C)COC(C)(C)C4)C2)C1 [Example 12-2, 1-(6-(4-(3-chloro-5-hydroxy-2-methylphenyl)-3,7,7-trimethyl-7,8-dihydro-5H-pyrano[4,3-b]pyridin-2-yl)-2,6-diazaspiro[3.4]octan-2-yl)prop-2-en-1-one]
3.78 µM	0.02 µM	0.036 µM	C=CC(=O)N1CC2(CCN(c3nc4c(c(-c5c(C)cc(F)c6[nH]ncc56)c3C#N)C[C@H]3C[C@@H]4C3(C)C)C2)C1 [Example 12-11, (1R,9R)-6-(7-fluoro-5-methyl-1H-indazol-4-yl)-10,10-dimethyl-4-(2-(2-propenoyl)-2,6-diazaspiro[3.4]octan-6-yl)-3-azatricyclo[7.1.1.0^2,7] undeca-2,4,6-triene-5-carbonitrile]
3.75 µM	0.018 µM	0.037 µM	C=CC(=O)N1CC2(CCN(c3nc4c(c(-c5c(C)ccn6cncc56)c3C#N)C[C@H]3C[C@@H]4C3(C)C)C2)C1 [Example 12-19, (1R,9R)-10,10-dimethyl-6-(7-methylimidazo[1,5-a]pyridin-8-yl)-4-(2-(2-propenoyl)-2,6-diazaspiro[3.4]octan-6-yl)-3-azatricyclo[7.1.1.0^2,7] undeca-2,4,6-triene-5-carbonitrile]
> 5 µM	2.57 µM	0.105 µM	C=CC(=O)N1CC2(CCN(c3nc4c(c(-c5c(C)ccc6c(Cl)c[nH]c56)c3C#N)COC(C)(C)C4)C2)C1 [Example 12-20, 4-(3-chloro-6-methyl-1H-indol-7-yl)-7,7-dimethyl-2-(2-(2-propenoyl)-2,6-diazaspiro[3.4]octan-6-yl)-7,8-dihydro-5H-pyrano[4,3-b]pyridine-3-carbonitrile]
> 5 µM	0.044 µM	0.037 µM	C=CC(=O)N1CC2(CCN(c3nc4c(c(-c5c(C)c(Cl)cc6cnn(C)c56)c3C)CCN(C(C)C)C4)C2)C1 [Example 12-22, 1-(6-(4-(5-chloro-1,6-dimethyl-1H-indazol-7-yl)-3-methyl-7-(2-propanyl)-5,6,7,8-tetrahydro-1,7-naphthyridin-2-yl)-2,6-diazaspiro[3.4]octan-2-yl)-2-propen-1-one]
> 5 µM	0.092 µM	0.02 µM	C=CC(=O)N1CC2(CCN(c3nc4c(c(-c5cc(O)cc(F)c5Cl)c3C#N)C[C@H]3C[C@@H]4C3(C)C)C2)C1 [Example 12-34, (1R,9R)-6-(2-chloro-3-fluoro-5-hydroxyphenyl)-10,10-dimethyl-4-(2-(2-propenoyl)-2,6-diazaspiro[3.4]octan-6-yl)-3-azatricyclo[7.1.1.0^2,7] undeca-2,4,6-triene-5-carbonitrile]
> 5 µM	1.09 µM	0.044 µM	C=CC(=O)N1CC2(CCN(c3nc4c(c(-c5cc(O)cnc5Cl)c3C#N)C[C@H]3C[C@@H]4C3(C)C)C2)C1 [Example 12-35, (1R,9R)-6-(2-chloro-5-hydroxy-3-pyridinyl)-10,10-dimethyl-4-(2-(2-propenoyl)-2,6-diazaspiro[3.4]octan-6-yl)-3-azatricyclo[7.1.1.0^2,7] undeca-2,4,6-triene-5-carbonitrile]
> 5 µM	0.502 µM	0.11 µM	C=CC(=O)N1CC2(CCN(c3nc4c(c(-c5cccc6cc(O)ccc56)c3C#N)COC(C)(C)C4)C2)C1 [Example 12-41, 4-(6-hydroxy-1-naphthalenyl)-7,7-dimethyl-2-(2-(2-propenoyl)-2,6-diazaspiro[3.4]octan-6-yl)-7,8-dihydro-5H-pyrano[4,3-b]pyridine-3-carbonitrile]
